Consider one compound from publication PMC6981391, “The Selective Class IIa Histone Deacetylase Inhibitor TMP195 Resensitizes ABCB1- and ABCG2-Overexpressing Multidrug-Resistant Cancer Cells to Cytotoxic Anticancer Drugs” (International Journal of Molecular Sciences, 2019).

By EC50 is commonly meant the concentration at which the effect is half-maximal.

Experiment [1] concerns the target T1, ABCB1 (Homo sapiens, UniProt P08183).
T1 construct: membrane vesicles from High-Five insect cells infected with recombinant baculovirus containing ABCB1
Kind of experiment: stimulation of vanadate-sensitive ATPase activity in membrane vesicles (endpoint Pi assay); also inhibits calcein-AM efflux in MDR19-HEK293 and KB-V-1 cells. The format is biochemical.

Experiment [2] concerns the target T2, ABCG2 (Homo sapiens, UniProt Q9UNQ0).
T2 sequence (Q9UNQ0 1-655): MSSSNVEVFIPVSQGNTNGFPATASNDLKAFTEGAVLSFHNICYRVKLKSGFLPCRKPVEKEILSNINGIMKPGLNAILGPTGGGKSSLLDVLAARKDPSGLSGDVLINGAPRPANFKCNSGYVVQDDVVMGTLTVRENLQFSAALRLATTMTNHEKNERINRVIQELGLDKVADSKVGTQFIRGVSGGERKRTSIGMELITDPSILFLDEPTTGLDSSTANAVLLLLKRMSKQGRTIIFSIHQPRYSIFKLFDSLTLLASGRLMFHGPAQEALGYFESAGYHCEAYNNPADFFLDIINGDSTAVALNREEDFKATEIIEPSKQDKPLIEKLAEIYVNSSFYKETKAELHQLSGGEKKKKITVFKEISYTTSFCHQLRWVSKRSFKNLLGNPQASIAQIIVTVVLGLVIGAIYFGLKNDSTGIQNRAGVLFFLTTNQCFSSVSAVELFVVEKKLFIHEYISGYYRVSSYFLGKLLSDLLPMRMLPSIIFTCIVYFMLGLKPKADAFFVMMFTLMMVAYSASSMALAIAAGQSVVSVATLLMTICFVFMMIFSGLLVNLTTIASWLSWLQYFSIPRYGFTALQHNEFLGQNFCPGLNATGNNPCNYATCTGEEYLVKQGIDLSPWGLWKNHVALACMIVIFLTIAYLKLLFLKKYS
Kind of experiment: biochemical.

T1 sequence (P08183 whole entry): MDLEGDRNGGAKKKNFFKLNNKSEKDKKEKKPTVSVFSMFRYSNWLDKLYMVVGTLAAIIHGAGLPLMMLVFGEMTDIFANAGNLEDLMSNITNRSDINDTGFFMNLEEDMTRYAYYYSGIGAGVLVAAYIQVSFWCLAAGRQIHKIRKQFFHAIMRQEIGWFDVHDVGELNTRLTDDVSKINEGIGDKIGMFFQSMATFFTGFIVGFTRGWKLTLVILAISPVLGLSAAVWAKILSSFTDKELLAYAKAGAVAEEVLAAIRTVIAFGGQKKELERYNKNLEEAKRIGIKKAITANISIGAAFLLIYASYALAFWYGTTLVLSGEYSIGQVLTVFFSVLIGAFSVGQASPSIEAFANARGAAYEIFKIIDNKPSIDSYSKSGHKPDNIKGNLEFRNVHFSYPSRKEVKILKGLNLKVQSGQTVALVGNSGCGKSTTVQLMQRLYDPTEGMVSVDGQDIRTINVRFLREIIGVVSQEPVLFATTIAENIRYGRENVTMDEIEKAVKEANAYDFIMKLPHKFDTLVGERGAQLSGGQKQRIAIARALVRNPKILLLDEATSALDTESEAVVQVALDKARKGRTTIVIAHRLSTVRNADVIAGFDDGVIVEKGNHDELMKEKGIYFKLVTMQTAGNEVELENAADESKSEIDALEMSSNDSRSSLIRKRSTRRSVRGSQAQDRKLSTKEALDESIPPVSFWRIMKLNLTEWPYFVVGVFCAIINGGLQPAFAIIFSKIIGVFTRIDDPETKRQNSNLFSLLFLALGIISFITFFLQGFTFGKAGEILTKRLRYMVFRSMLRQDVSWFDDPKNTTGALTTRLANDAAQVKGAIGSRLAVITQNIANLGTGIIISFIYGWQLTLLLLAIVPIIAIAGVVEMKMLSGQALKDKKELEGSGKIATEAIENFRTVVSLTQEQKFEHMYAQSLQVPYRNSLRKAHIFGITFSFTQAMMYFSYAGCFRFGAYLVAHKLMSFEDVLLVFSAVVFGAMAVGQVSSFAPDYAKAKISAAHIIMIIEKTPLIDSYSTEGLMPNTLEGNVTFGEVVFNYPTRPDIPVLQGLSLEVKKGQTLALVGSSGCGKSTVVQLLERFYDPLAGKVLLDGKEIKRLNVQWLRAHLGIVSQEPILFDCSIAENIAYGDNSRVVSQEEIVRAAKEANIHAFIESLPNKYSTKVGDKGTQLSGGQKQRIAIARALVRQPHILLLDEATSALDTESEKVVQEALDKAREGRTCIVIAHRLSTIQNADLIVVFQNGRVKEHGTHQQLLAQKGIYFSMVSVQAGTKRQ

`CC(C)(CNC(=O)c1cccc(-c2noc(C(F)(F)F)n2)c1)c1coc(-c2ccccc2)n1` [TMP195]: the EC50 in experiment [1] was about 2000 nM; in experiment [2], about 400 nM.
